Like-named read-outs stand apart in the source and are kept apart here.
Assays:
HCV NS5B = target: T1, HCV NS5B (Hepatitis C virus genotype 1b, UniProt Q9WMX2); test: HCV NS5B RdRp enzyme assay (standard / modified); assay type: biochemical
T1 construct: The protein was expressed with an 18 amino acid C-terminal truncation to enhance the solubility; made in house; host or cells: E. coli BL21 (DE3)
Procedure, shortened: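 NS5B genotype 1b, 18-aa C-terminal truncation, E. coli-expressed; polyA template with biotinylated oligo-dT12 primer, 3H-UTP 0.29 μM, 30° C, SPA read-out in 20 mM Hepes pH 7.5, 2% DMSO. Standard: 28 nM enzyme, 6 nM template, 180 nM primer, 60 min; modified: 14 nM enzyme, 0.2 nM template, 20 nM bead-precaptured primer, 4 h. IC50 from seven concentrations.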

HCV replicon cells = test: HCV replicon FRET / luciferase assay; assay type: cell-based; settings: Hepatitis C virus
Text: FRET Assay Preparation. To perform the HCV FRET screening assay, 96-well cell culture plates were used. The FRET peptide (Anaspec, Inc.) (Taliani et al., Anal. Biochem. 1996, 240, 60-67) contains a fluorescence donor, EDANS, near one end of the peptide and an acceptor, DABCYL, near the other end. The fluorescence of the peptide is quenched by […] resonance energy transfer (RET) between the donor and the acceptor, but as the NS3 protease cleaves the peptide the products are released from RET quenching and the fluorescence of the donor becomes apparent. The assay reagent was made as follows: 5× cell Luciferase cell culture lysis reagent from Promega (#E153A) diluted to 1× with dH2O, NaCl added to 150 mM final, the FRET peptide diluted to 20 μM final from a 2 mM stock.
To prepare plates, HCV replicon cells, with or without a Renilla luciferase reporter gene, were trypsinized and placed into each well of a 96-well plate with titrated test compounds added in columns 3 through 12; columns 1 and 2 contained a control compound (HCV protease inhibitor), and the bottom row contained cells without compound. The plates were then placed in a CO2 incubator at 37° C.
Assays. Subsequent to addition of the test compounds described above (FRET Assay Preparation), at various times the plate was removed and Alamar blue solution (Trek Diagnostics, #00-100) was added per well as a measure of cellular toxicity. After reading in a Cytoflour 4000 instrument (PE Biosystems), plates were rinsed with PBS and then used for FRET assay by the addition of 30 ul of the FRET peptide assay reagent described above (FRET Assay Preparation) per well. The plate was then placed into the Cytoflour 4000 instrument which had been set to 340 excite/490 emission, automatic mode for 20 cycles and the plate read in a kinetic mode. Typically, the signal to noise using an endpoint analysis after the reads was at least three-fold. Alternatively, after Alamar blue reading, plates were rinsed with PBS, 50 ul of DMEM (high glucose) without phenol red was added and plates were then used for luciferase assay using the Promega Dual-Glo Luciferase Assay System.
Compound analysis was determined by quantification of the relative HCV replicon inhibition and the relative cytotoxicity values. To calculate cytoxicity values, the average Alamar Blue fluorescence signals from the control wells were set as 100% non-toxic. The individual signals in each of the compound test wells were then divided by the average control signal and multiplied by 100% to determine […]. To calculate the HCV replicon inhibition values, an average background value was obtained from the two wells containing the highest amount of HCV protease inhibitor at the end of the assay period. These numbers were similar to those obtained from naïve Huh-7 cells.
The background numbers were then subtracted from the average signal obtained from the control wells and this number was used as 100% activity. The individual signals in each of the compound test wells were then divided by the averaged control values after background subtraction and multiplied by 100% to determine percent activity. EC50 values for a protease inhibitor titration were calculated as the concentration which caused a 50% reduction in FRET or luciferase activity. The two numbers generated for the compound plate, percent cytoxicity and percent activity were used to determine compounds of interest for further analysis.

[1] = HCV RdRp genotype 1b enzyme, read-out: IC50
[2] = HCV replicon cells, FRET or luciferase readout, read-out: EC50

T1 sequence (Q9WMX2 2420-2992): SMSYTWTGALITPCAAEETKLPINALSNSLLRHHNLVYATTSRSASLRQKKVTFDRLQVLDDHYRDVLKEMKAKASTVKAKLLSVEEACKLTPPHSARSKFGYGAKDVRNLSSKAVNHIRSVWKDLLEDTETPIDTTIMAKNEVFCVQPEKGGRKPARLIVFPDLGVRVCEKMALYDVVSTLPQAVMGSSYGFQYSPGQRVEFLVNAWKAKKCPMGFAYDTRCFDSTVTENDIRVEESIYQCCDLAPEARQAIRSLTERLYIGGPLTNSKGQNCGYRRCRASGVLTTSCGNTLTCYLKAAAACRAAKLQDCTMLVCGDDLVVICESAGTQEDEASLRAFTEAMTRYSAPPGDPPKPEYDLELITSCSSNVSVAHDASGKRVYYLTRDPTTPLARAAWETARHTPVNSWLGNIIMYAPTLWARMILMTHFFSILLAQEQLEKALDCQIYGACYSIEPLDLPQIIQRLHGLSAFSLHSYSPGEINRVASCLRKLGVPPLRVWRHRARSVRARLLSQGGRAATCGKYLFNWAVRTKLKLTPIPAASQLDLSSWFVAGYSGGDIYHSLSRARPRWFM

| SMILES | IC50 (HCV NS5B; [1]) | EC50 (HCV replicon cells; [2]) | IC50 (HCV NS5B) | EC50 (HCV replicon cells) |
| --- | --- | --- | --- | --- |
| CCC(C)S(=O)(=O)NC(=O)c1ccc2c(C3CCCCC3)c3n(c2c1)CC(c1c(C(=O)N2CCCC(N(C)C)C2)cnn1C)=Cc1cc(OC)ccc1-3 (stereo not shown) | 1 to 500 nM | 1 to 500 nM | – | – |
| CCOC(=O)c1cc[nH]c1C1=Cc2cc(OC)ccc2-c2c(C3CCCCC3)c3ccc(C(=O)NS(=O)(=O)C(C)C)cc3n2C1 | 1 to 500 nM | 1 to 500 nM | – | – |
| CCOC(=O)c1cnn(C)c1C1=Cc2cc(OC)ccc2-c2c(C3CCCCC3)c3ccc(C(=O)NS(=O)(=O)C(C)C)cc3n2C1 | 1 to 500 nM | 1 to 500 nM | – | – |
| CCN1C[C@@H]2C[C@H]1CN2C(=O)c1cnn(C)c1C1=Cc2cc(OC)ccc2-c2c(C3CCCCC3)c3ccc(C(=O)NS(=O)(=O)N4CCOCC4)cc3n2C1 | 1 to 500 nM | 1 to 500 nM | – | – |
| COc1ccc2c(c1)C=C(c1c(C(=O)N3C4CCC3CN(C)C4)cnn1C)Cn1c-2c(C2CCCCC2)c2ccc(C(=O)NS(=O)(=O)C3CCC3)cc21 | – | – | 1 to 500 nM | 1 to 500 nM |
| COc1ccc2c(c1)C=C(c1c(C(=O)N3CCOCC3)cnn1C)Cn1c-2c(C2CCCCC2)c2ccc(C(=O)NS(=O)(=O)C3CCC3)cc21 | 1 to 500 nM | 1 to 500 nM | – | – |
| COCCN(C(=O)c1cnn(C)c1C1=Cc2cc(OC)ccc2-c2c(C3CCCCC3)c3ccc(C(=O)NS(=O)(=O)N4CCOCC4)cc3n2C1)C(C)C | 1 to 500 nM | 1 to 500 nM | – | – |
| COc1ccc2c(c1)C=C(c1c(C(=O)N3C4COCC3COC4)cnn1C)Cn1c-2c(C2CCCCC2)c2ccc(C(=O)NS(=O)(=O)C3CCC3)cc21 | – | – | 1 to 500 nM | 1 to 500 nM |
| COc1ccc2c(c1)C=C(c1c(C(=O)O)ccn1C(C)C)Cn1c-2c(C2CCCCC2)c2ccc(C(=O)NS(=O)(=O)C(C)C)cc21 | 1 to 500 nM | > 500 nM | – | – |
| COc1ccc2c(c1)C=C(c1c(C(=O)N3C4CCC3CC4)cnn1C)Cn1c-2c(C2CCCCC2)c2ccc(C(=O)NS(=O)(=O)N3CCOCC3)cc21 | – | – | 1 to 500 nM | 1 to 500 nM |
| COc1ccc2c(c1)C=C(c1c(C(=O)N3CCOCC3)cnn1C)Cn1c-2c(C2CCCCC2)c2ccc(C(=O)NS(=O)(=O)N(C)C)cc21 | 1 to 500 nM | 1 to 500 nM | – | – |
| COc1ccc2c(c1)C=C(c1c(C(=O)N3C4COCC3COC4)cnn1C)Cn1c-2c(C2CCCCC2)c2ccc(C(=O)NS(=O)(=O)C3CCCC3)cc21 | – | – | 1 to 500 nM | 1 to 500 nM |
| COc1ccc2c(c1)C=C(c1c(C(=O)N3CCN4CCC3CC4)cnn1C)Cn1c-2c(C2CCCCC2)c2ccc(C(=O)NS(=O)(=O)N3CCOCC3)cc21 | 1 to 500 nM | 1 to 500 nM | – | – |
| COc1ccc2c(c1)C=C(c1c(C(=O)N3CCOCC3)cnn1C1CC1)Cn1c-2c(C2CCCCC2)c2ccc(C(=O)NS(=O)(=O)C(C)C)cc21 | 1 to 500 nM | 1 to 500 nM | – | – |
| COc1ccc2c(c1)C=C(c1c(C(=O)N3CCN4CCCC4C3)cnn1C)Cn1c-2c(C2CCCCC2)c2ccc(C(=O)NS(=O)(=O)C3CCC3)cc21 (stereo not shown) | 1 to 500 nM | 1 to 500 nM | – | – |
| COc1ccc2c(c1)C=C(c1sccc1C(=O)O)Cn1c-2c(C2CCCCC2)c2ccc(C(=O)NS(=O)(=O)C(C)C)cc21 | 1 to 500 nM | > 40 nM | – | – |
| COC[C@@H]1CN(C(=O)c2cnn(C)c2C2=Cc3cc(OC)ccc3-c3c(C4CCCCC4)c4ccc(C(=O)NS(=O)(=O)C(C)C)cc4n3C2)CCO1 | 1 to 500 nM | 1 to 500 nM | – | – |
| COc1ccc2c(c1)C=C(c1ocnc1C(=O)N1CCOCC1)Cn1c-2c(C2CCCCC2)c2ccc(C(=O)NS(=O)(=O)N(C)C)cc21 | 1 to 500 nM | 1 to 500 nM | – | – |

| SMILES | IC50 (HCV NS5B; [1]) | EC50 (HCV replicon cells; [2]) | IC50 (HCV NS5B) | EC50 (HCV replicon cells) |
| --- | --- | --- | --- | --- |
| CCOC(=O)c1ccoc1C1=Cc2cc(OC)ccc2-c2c(C3CCCCC3)c3ccc(C(=O)NS(=O)(=O)C(C)C)cc3n2C1 | 1 to 500 nM | > 500 nM | – | – |
| COc1ccc2c(c1)C=C(c1c(C(=O)N3C[C@@H]4C[C@H]3CO4)c(C)nn1C(C)C)Cn1c-2c(C2CCCCC2)c2ccc(C(=O)NS(=O)(=O)C(C)C)cc21 | 1 to 500 nM | 1 to 500 nM | – | – |
| COc1ccc2c(c1)C=C(c1c(C(=O)N3[C@@H]4CC[C@H]3CN(C)C4)cnn1C(C)C)Cn1c-2c(C2CCCCC2)c2ccc(C(=O)NS(=O)(=O)CC(C)C)cc21 | – | – | 1 to 500 nM | 1 to 500 nM |
| CCCN1CCN(C(=O)c2ccn(C(C)C)c2C2=Cc3cc(OC)ccc3-c3c(C4CCCCC4)c4ccc(C(=O)NS(=O)(=O)C(C)C)cc4n3C2)CC1 | 1 to 500 nM | 1 to 500 nM | – | – |
| CCn1ncc(C(=O)N2C3CCCC2COC3)c1C1=Cc2cc(OC)ccc2-c2c(C3CCCCC3)c3ccc(C(=O)NS(=O)(=O)C(C)C)cc3n2C1 | – | – | 1 to 500 nM | 1 to 500 nM |
| COc1ccc2c(c1)C=C(c1c(C(=O)N3CCOCC3)cnn1C(C)C)Cn1c-2c(C2CCCCC2)c2ccc(C(=O)NS(=O)(=O)C(C)C)cc21 | 1 to 500 nM | 1 to 500 nM | – | – |
| COC[C@@H]1CN(C(=O)c2cnn(C)c2C2=Cc3cc(OC)ccc3-c3c(C4CCCCC4)c4ccc(C(=O)NS(=O)(=O)C5CCC5)cc4n3C2)CCO1 | 1 to 500 nM | 1 to 500 nM | – | – |
| CCN1C[C@@H]2C[C@H]1CN2C(=O)c1c(C(F)(F)F)nn(C)c1C1=Cc2cc(OC)ccc2-c2c(C3CCCCC3)c3ccc(C(=O)NS(=O)(=O)C(C)C)cc3n2C1 | 1 to 500 nM | 1 to 500 nM | – | – |
| COc1ccc2c(c1)C=C(c1c(C(=O)N3C4CCC3CN(C)C4)cnn1C(C)C)Cn1c-2c(C2CCCCC2)c2ccc(C(=O)NS(=O)(=O)C(C)C)cc21 | – | – | 1 to 500 nM | 1 to 500 nM |
| COc1ccc2c(c1)C=C(c1c(C(=O)N3CC4CCC(C3)O4)cnn1C(C)C)Cn1c-2c(C2CCCCC2)c2ccc(C(=O)NS(=O)(=O)C(C)C)cc21 | 1 to 500 nM | 1 to 500 nM | – | – |
| COc1ccc2c(c1)C=C(c1ocnc1C(=O)N1CCOCC1)Cn1c-2c(C2CCCCC2)c2ccc(C(=O)NS(=O)(=O)N3CCOCC3)cc21 | 1 to 500 nM | 1 to 500 nM | – | – |
| CCN1C[C@@H]2C[C@H]1CN2C(=O)c1cnn(CC)c1C1=Cc2cc(OC)ccc2-c2c(C3CCCCC3)c3ccc(C(=O)NS(=O)(=O)C(C)C)cc3n2C1 | 1 to 500 nM | 1 to 500 nM | – | – |
| COc1ccc2c(c1)C=C(c1c(C(=O)N3CCC(N(C)C)C3)cnn1C)Cn1c-2c(C2CCCCC2)c2ccc(C(=O)NS(=O)(=O)N3CCOCC3)cc21 (stereo not shown) | 1 to 500 nM | 1 to 500 nM | – | – |
| COc1ccc2c(c1)C=C(c1c(C(=O)N3C4CCCC3COC4)cnn1CC(F)(F)F)Cn1c-2c(C2CCCCC2)c2ccc(C(=O)NS(=O)(=O)C(C)C)cc21 | – | – | 1 to 500 nM | 1 to 500 nM |
| COc1ccc2c(c1)C=C(c1c(C(=O)N3C4CCCC3COC4)cnn1C)Cn1c-2c(C2CCCCC2)c2ccc(C(=O)NS(=O)(=O)C3CCCC3)cc21 | – | – | 1 to 500 nM | 1 to 500 nM |
| COc1ccc2c(c1)C=C(c1c(C(=O)N3CC(C)N(C)C(C)C3)cnn1C(C)C)Cn1c-2c(C2CCCCC2)c2ccc(C(=O)NS(=O)(=O)C(C)C)cc21 (stereo not shown) | 1 to 500 nM | 1 to 500 nM | – | – |
| COc1ccc2c(c1)C=C(c1c(C(=O)N3CCN(C)CC3)cnn1C)Cn1c-2c(C2CCCCC2)c2ccc(C(=O)NS(=O)(=O)C(C)C)cc21 | 1 to 500 nM | 1 to 500 nM | – | – |

— patent publication US8143243B2, “Compounds for the treatment of hepatitis C” (Bristol-Myers Squibb Company, priority 2007, dated 2012)
